Nine molecules from US7414068B2, “Benzopyran derivatives substituted with secondary amines including tetrazole, method for the preparation thereof and pharmaceutical compositions containing them” (Dongbu Hannong Chemical Co., Ltd., priority 2002, dated 2008) can be followed below.

The test system of one data set is isolated rat aorta. As to the kind of experiment: Vasodilating effect on blood vessel excised from rats (methoxamine-constricted aorta). The note with it: isolated rat aorta constricted with methoxamine (3 μM); read-out: Concentration for inhibition of constriction induced by methoxamine in rat arota (IC50). The essentials: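 Endothelium-denuded rat thoracic aortic rings (3 mm) in Krebs-Henseleit buffer, 37 °C, carbogen, 2 g resting tension, primed twice with 10^−5 M phenylephrine. After maximal contraction with 3×10^−6 M methoxamine, compounds added cumulatively at 1, 3, 10, 30 μM. IC50 = concentration giving 50% relaxation of maximal constriction, by linear regression.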

The test system of a further data set is cortical neuron cells. The data set is described as follows: Protective effect on iron-induced neuronal cell injury (LDH release). The note with it: FeSO4 50 μM; for protective effect on neuron cell: Inhibition (%, 30 μM compound addition): LDH reduction vs control; for IC50: LDH. Type of data set: cell-based. The essentials: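 Embryonic (day 17–18) cortical neurons cultured 7–9 days, serum lowered to 0.2%, pretreated 30 min with compound (DMSO ≤0.1%), then exposed to 50 μM FeSO4 for 24 h. LDH released to medium measured; protection expressed as LDH reduction versus vehicle control.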
For orientation: LDH in the medium is a marker of cell lysis.

The next data set has as its system brain homogenate. The data set is described as follows: Inhibitory effect against lipid peroxidation by iron (MDA quantification). The note with it: 100 μM compound, FeCl2 400 μM, 37° C. 30 min. Format: biochemical, rat. On the procedure:
The rat brain was homogenized in a Krebs buffer (15 mM HEPES, 10 mM glucose, 140 mM NaCl, 3.6 mM KCl, 1.5 mM CaCl2, 1.4 mM KH2PO4, 0.7 mM MgCl2, PH 7.4) and the supernatant separated by centrifugation at 12,000 rpm for 10 min was used for further experiments. FeCl2 was added for the final concentration to be 400 μM. Then the brain homogenate was allowed to stand at 37° C. for 30 min for the facilitation of oxidation. Each of the test compounds was added at a concentration of 100 μM. For control group, only vehicle was applied.
Iron facilitates the oxidation of the said brain homogenate to produce malondialdehyde (MDA), lipid peroxidation product. Thus, the lipid peroxidation was determined by MDA quantification. The inhibitory effect against lipid peroxidation of the test compounds was evaluated by calculating MDA reduction rate of the test compounds compared with that of the control group.
Typically, the MDA quantification is achieved by reacting samples with 2-thiobarbituric acid (TBA) and measuring the absorbance at 530 nm. However, this method is unsuitable to treat samples on a large scale because of a boiling step. Thus, in this experiment, N-methyl-2-phenylindole was used instead of TBA.

Data set [1] is described as follows: Acute oral toxicity test in rats. The note with it: SD, rat, in vivo, single oral dose, suspended in 0.5% methyl cellulose, read-out: lethal dose (LD50) for oral administration. The gist of the method: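 Six-week-old SPF SD rats, two per group, received compounds orally as suspensions in 0.5% methyl cellulose. Endpoints were clinical signs, body weight, mortality, haematology, serum biochemistry and macroscopic necropsy of organs and tissues.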

The subject of another data set is RAW 264.7 cells. As to the kind of experiment: Inhibitory effect on NO production (LPS, Griess reagent). Format: cell-based, murine. As to conditions: Mus musculus, RAW264.7, 24 h, Addition 30 μM, LPS 1 μg/ml, read-out: Inihibition (%) of NO production. The procedure:
Using RPMI1640 media supplemented with 10% fetal bovine serum (FBS), RAW 264.7 cells (obtained from American Type Culture Collection), a murine macrophage cell line, were cultured at 37° C. in a 5% CO2 incubator. The RAW 264.7 cells were harvested and cell density was adjusted to 5×10^5 cell/ml with a RPMI media supplemented with 0.5% FBS and plated at 5×10^4 cell/well to 96-well plate, which were then cultured for 20 hours in a CO2 incubator. After removal of the media, the cells were pre-treated for 1 hour with fresh media containing 30 μM. The test compounds were dissolved in DMSO and diluted to respective concentration in the media. In order to minimize DMSO effect on the nitric oxide formation by the RAW 264.7 cells in the walls, the media were allowed to contain DMSO at a concentration of 0.1% or less.
After completion of one-hour pre-treatment, Lipopolysaccharide (E. coli serotype 055:B5) was added to activate the cells at a final concentration of 1 μg/ml, which were maintained for 24 hours in a CO2 incubator. As a result of the activation of RAW 264.7 cells with LPS, NO was formed. The NO release into the media was in a form of nitrite (NO2^−) and quantitatively measured using the Griess reagent. A control group was treated only with vehicle instead of test compounds.
The inhibitory effect of the test compounds against NO production were determined as the reduction of NO quantity compared with that of the control group.
(Griess reagent forms a coloured azo dye with nitrite.)

In data set [2] the test system is isolated ischemic rat heart. The data set is described as follows: Cardioprotective effect in ischemic heart models of rats (Langendorff). As to conditions: 10 μM; for EDP (mmHg): after 30 min global ischemia and reperfusion; for LDH (u/g): reperfusion LDH release; for LVDP X HR (%): reperfusion, % of pre-treatment DP; for TTC: time to contracture during global ischemia. The procedure:
Male rats (300˜450 g, obtained form the experimental animal team of the Korea Research Institute of Chemical Technology) were anaesthetized by the intra-peritoneal injection of sodium pentobarbital at a dose of 100 mg/kg. Heparin (1,000 U/kg) was injected to the tail vein and then the heart was enucleated. Particularly, cannula (PE 240) was inserted to the organ. Rats were mechanically ventilated with a rodent ventilator, in situ aorta cannula was inserted into their aorta. In retorograde perfusion, their hearts were enucleated, then just hung onto Langendorff Apparatus. Tissue attached at the heart was removed. Heart was perfused in oxygenated modified Krebs-Henseleit bicarbonate buffer (composition<mM/L>116 NaCl, 4.7 KCl, 1.1 MgSO4, 1.17 KH2PO4, 24.9 NaHCO3, 2.52 CaCl2, 8.32 Glucose, 2.0 Pyruvate) at a constant perfusion pressure (85 mmHg). A metal cannula attached to latex balloon filled with solvent (ethanol: water=1:1 (v/v)) was placed in the left ventricle through pulmonary vein and connected to a isovolumetric pressure transducer (H.S.E., Germany) for measurement of left ventricular pressure (LVP). The hearts were allowed to equilibrate for 15 min, at which time left ventricular end-diastolic pressure (EDP) was adjusted to 5 mmHg and this balloon volume was maintained throughout the experiment.
Baseline cardiac contractile function, heart rate (HR), and coronary flow (CF) were measured. Cardiac contractile function was calculated by […], yielding LVDP (left ventricular developed pressure). Double product RPP (rate-pressure product) (DP), another important parameter for indirectly assessing cardiac performance in Langendorff heart impossible to measure cardiac output was calculated by multiplying HR by LVDP.
Throughout the experiment, total coronary blood flow was measured by the use of coronary flow probe (diameter: 1.0 mm) installed in aortic cannula with electromagnetic flowmeter. Temperature of heart was steadily maintained by immersing the heart at 37° C. in physiological saline solution to which 95% O2/5% CO2 was constantly supplied. After stabilization for 15 min, the hearts were pre-treated for 10 min in vehicle (0.04% DMSO) or mixture containing the compound of the present invention or control material. Thereafter, cardiac contractile function, HR and CF were repeatedly measured. Global ischemia was induced by completely shutting off the perfusate for 30 min. Severity of ischemia was determined as the time to contracture (TTC, min) during global ischemia in which the first 5 mmHg increase in EDP was observed. Then, the hearts were reperfused and, 30 min later, contractile functions (LVDP, HR and CF) was repeatedly measured. After reperfusion was accomplished for 30 min, LDH (lactate dehydrogenase) was measured as a sensitive index for loss of cell viability with a kit.

Consider `COC(OC)[C@@]1(C)Oc2ccc(N)cc2[C@@H](N(Cc2nnnn2C)c2ccc(Cl)cc2)[C@@H]1O` [Example 17, (2S,3S,4R)-6-amino-4-[N-(4-chlorophenyl)-N-(1-methyl-1H-tetrazol-5-ylmethyl)amino]-3-hydroxy-2-methyl-2-dimethoxymethyl-3,4-dihydro-2H-1-benzopyran], for which the IC50 was greater than 30000 nM with isolated rat aorta; less than 2000 nM in the data set with cortical neuron cells (Cortical neurone, 24 h); 2000 nM in the data set with cortical neuron cells (24 hours). In addition, in the data set with cortical neuron cells (24 hours), the “protective effect on neuron cell: Inhibition (%, 30 μM compound addition)” value is listed as 110%. Further, the “inhibitory effect against lipid peroxidation induced by iron (%, 100 μM)” value (from here on “inhibitory effect … (%, 100 μM)”) in the data set with brain homogenate is listed as 87%. Also, in data set [1], the LD50 is greater than 2000 mg/kg.

On to `COC(OC)[C@@]1(C)Oc2ccc([N+](=O)[O-])cc2[C@H](N(Cc2nnn(C)n2)c2ccccc2Cl)[C@H]1O` [Example 29, (2S,3R,4S)-6-nitro-4-[N-(2-chlorophenyl)-N-(2-methyl-2H-tetrazol-5-ylmethyl)amino]-3-hydroxy-2-methyl-2-dimethoxymethyl-3,4-dihydro-2H-1-benzopyran], for which the inhibition at 30 µM in the data set on RAW 264.7 cells is greater than 75%.

For the molecule `COC(OC)[C@@]1(C)Oc2ccc(N)cc2[C@H](N(Cc2nnn(C)n2)c2ccccc2Cl)[C@H]1O` [Example 30, (2S,3R,4S)-6-amino-4-[N-(2-chlorophenyl)-N-(2-methyl-2H-tetrazol-5-ylmethyl)amino]-3-hydroxy-2-methyl-2-dimethoxymethyl-3,4-dihydro-2H-1-benzopyran], the “protective effect on neuron cell: Inhibition (%, 30 μM compound addition)” value with cortical neuron cells (24 hours) was found to be 103%. The “inhibitory effect … (%, 100 μM)” value in the data set on brain homogenate was determined as 84%. Also, in data set [2], the “EDP (mmHg)” value is 17.0 mmHg, the “LDH (u/g)” value worked out at 15.7 u/g, the “LVDP X HR (%)” value turned out to be 64.7% and the “TTC” value is listed as 27.9 min. Besides, in data set [1], the LD50 was greater than 2000 mg/kg.

Take `COC(OC)[C@@]1(C)Oc2ccc(N)cc2[C@H](N(Cc2nnn(C)n2)c2ccc(OC(F)(F)F)cc2)[C@H]1O` [Example 32, (2S,3R,4S)-6-amino-4-[N-(4-trifluoromethoxyphenyl)-N-(2-methyl-2H-tetrazol-5-ylmethyl)amino]-3-hydroxy-2-methyl-2-dimethoxymethyl-3,4-dihydro-2H-1-benzopyran]: the IC50 in the data set on isolated rat aorta is greater than 30000 nM. Moreover, in the data set on cortical neuron cells (24 hours), the “protective effect on neuron cell: Inhibition (%, 30 μM compound addition)” value is 108% and the IC50 came to 1600 nM. Also, in the data set on cortical neuron cells (Cortical neurone, 24 h), the IC50 is less than 2000 nM. Further, in the data set with brain homogenate, the “inhibitory effect … (%, 100 μM)” value stood at 89%. Also, in data set [2], the “EDP (mmHg)” value was 17.0 mmHg, the “LDH (u/g)” value was 15.7 u/g, the “LVDP X HR (%)” value is reported as 64.7% and the “TTC” value is given as 27.9 min. Also, in data set [1], the LD50 was greater than 2000 mg/kg.

For `COC(OC)[C@@]1(C)Oc2ccc([N+](=O)[O-])cc2[C@H](N(Cc2nnn(C)n2)c2ccc(C)cc2C)[C@H]1O` [Example 45, (2S,3R,4S)-6-nitro-4-[N-(2,4-dimethylphenyl)-N-(2-methyl-2H-tetrazol-5-ylmethyl)amino]-3-hydroxy-2-methyl-2-dimethoxymethyl-3,4-dihydro-2H-1-benzopyran], in the data set on RAW 264.7 cells, the inhibition at 30 µM was greater than 75%.

`COC(OC)[C@@]1(C)Oc2ccc([N+](=O)[O-])cc2[C@H](N(Cc2nnn(C)n2)c2c(C)cccc2C)[C@H]1O` [Example 47, (2S,3R,4S)-6-nitro-4-[N-(2,6-dimethylphenyl)-N-(2-methyl-2H-tetrazol-5-ylmethyl)amino]-3-hydroxy-2-methyl-2-dimethoxymethyl-3,4-dihydro-2H-1-benzopyran]: the inhibition at 30 µM with RAW 264.7 cells amounted to 62%.

Take `COC(OC)[C@@]1(C)Oc2ccc([N+](=O)[O-])cc2[C@H](N(Cc2nnn(C)n2)c2ccccc2C(C)C)[C@H]1O` [Example 51, (2S,3R,4S)-6-nitro-4-[N-(2-isopropylphenyl)-N-(2-methyl-2H-tetrazol-5-ylmethyl)amino]-3-hydroxy-2-methyl-2-dimethoxymethyl-3,4-dihydro-2H-1-benzopyran]: the inhibition at 30 µM in the data set on RAW 264.7 cells was greater than 90%.

Regarding `COC(OC)[C@@]1(C)Oc2ccc(N)cc2[C@H](N(Cc2nnn(C)n2)c2ccccc2O)[C@H]1O` [Example 61, (2S,3R,4S)-6-amino-4-[N-(2-hydroxyphenyl)-N-(2-methyl-2H-tetrazol-5-ylmethyl)amino]-3-hydroxy-2-methyl-2-dimethoxymethyl-3,4-dihydro-2H-1-benzopyran], the IC50 in the data set with isolated rat aorta is greater than 30000 nM. In the data set with cortical neuron cells (24 hours), the “protective effect on neuron cell: Inhibition (%, 30 μM compound addition)” value is 89% and the IC50 was found to be 1200 nM. The molecule further yielded an IC50 in the data set on cortical neuron cells (Cortical neurone, 24 h) of less than 2000 nM. Moreover, the “inhibitory effect … (%, 100 μM)” value in the data set on brain homogenate was 87%. Moreover, in data set [2], the “EDP (mmHg)” value was determined as 23.0 mmHg, the “LDH (u/g)” value stood at 22.4 u/g, the “LVDP X HR (%)” value stood at 52.7% and the “TTC” value was 20.0 min. The LD50 in data set [1] is greater than 2000 mg/kg.

Turning to `COC(OC)[C@@]1(C)Oc2ccc(N)cc2[C@@H](N(Cc2nnn(C)n2)c2ccc(OC(F)(F)F)cc2)[C@@H]1O` [Example 81, (2S,3S,4R)-6-amino-4-[N-(4-trifluoromethoxyphenyl)-N-(2-methyl-2H-tetrazol-5-ylmethyl)amino]-3-hydroxy-2-methyl-2-dimethoxymethyl-3,4-dihydro-2H-1-benzopyran], the IC50 in the data set on isolated rat aorta was greater than 30000 nM; in the data set on cortical neuron cells (Cortical neurone, 24 h), less than 2000 nM; in the data set on cortical neuron cells (24 hours), 1500 nM. For the same molecule, the “protective effect on neuron cell: Inhibition (%, 30 μM compound addition)” value in the data set with cortical neuron cells (24 hours) is recorded as 120%. Moreover, the “inhibitory effect … (%, 100 μM)” value with brain homogenate was 89%. For the same molecule, the LD50 in data set [1] is greater than 2000 mg/kg.
